Patent EP0635577B1, “Screen for inhibitors of melanin biosynthesis” (BASF AKTIENGESELLSCHAFT, priority 1993, dated 1995)
Where a name gives a salt, the structure may show the parent alone. Read-outs that look alike come from different tables or passages of the source.

Test system: Cladosporium cucumerinum
Assay: melanin biosynthesis inhibition screen, disk diffusion assay on solidified culture
Type: cell-based
Experimental: Potato dextrose medium (PDM) for the screening test is prepared by melting
The mixture is autoclaved as 150 ml aliquots at 121°C for 25 minutes.
A chloramphenicol stock solution is prepared to contain 15 mg chloramphenicol per mL absolute ethanol and is stored at -20°C.
Conidia from Cladosporium cucumerinum, 10^7/mL in 0.03% Tween 20™, retain their viability for at least 12 weeks of storage in 1.8 ml cryovials at -85°C. Inoculum for running the screen are raised once every three months and stored without a cryoprotectant at the working concentration of 10^7 conidia/mL.
Fresh inoculum suspensions are prepared from conidial suspensions stored at -85°C. A cryovial is thawed by hand-heat, and 200 uL spread on the surface of PDA in 9 cm Petri dishes. Plates are placed in a resin box (to prevent fungal escape) and incubated at room temperature, 40 cm below laboratory fluorescent lights. Seven days later conidia are collected. Five mL of 0.03% Tween 20™ is added to each plate, and the conidia are released by rubbing the mycelium with a glass rod. The suspension is passed through a layer of sterile Miracloth™ and the concentration adjusted to 10^7 conidia/mL in 0.03% Tween 20™ using a haemocytometer. Aliquots of 1 mL are dispensed into cryovials and placed in a polystyrene holder to freeze slowly to -85°C.
For the test, 150 mL of PDM is cooled to 35°C, and 0.1 mL of chloramphenicol stock solution is added by gentle swirling. A vial of C. cucumerinum conidial suspension (10^7 conidia/ml in Tween 20™) thawed with hand-heat is mixed into the growth medium using gentle swirling. The mixture is poured immediately into a Biotray, and the agar is allowed to solidify.
Test compounds are applied to 0.63 cm (¼ inch) filter disks. Each test includes a positive control, 200 ng tricyclazole in 20% dimethyl sulphoxide (DMSO). The plate is incubated at room-temperature (∼23°C) 40 cm below laboratory fluorescent lights. The plate is read 40 hours later. […] The Biotrays are autoclaved before disposal.
The compounds are applied as 20 ul droplets from a 1 mg/ml stock solution.

[1] = C. cucumerinum Antibiotic Panel, effect on growth and pigmentation in words, screen of Example 1
[2] = Antifungal Panel, growth inhibition zone, 20 ul droplets from a 1 mg/ml stock solution on filter disk, read 40 hours later
[3] = C. cucumerinum Antibiotic Panel, growth inhibition zone, screen of Example 1
[4] = C. cucumerinum Antibiotic Panel, screen of Example 1
[5] = Antifungal Panel, effect on growth and pigmentation in words, 20 ul droplets from a 1 mg/ml stock solution on filter disk, read 40 hours later

| Compound | Observation [1] | Observation: inhibits, radius cleared [2] | further results |
| --- | --- | --- | --- |
| CN(C)c1ncnc2c1ncn2[C@@H]1O[C@H](CO)[C@@H](N)[C@H]1O [Puromycin Aminonucleoside] | no effect on growth or pigmentation |  |  |
| CC(=O)N1CCN(c2ccc(OCC3COC(Cn4ccnc4)(c4ccc(Cl)cc4Cl)O3)cc2)CC1 (centres unmarked) [Ketoconazole] |  | inhibits, 26 mm radius cleared |  |
| C[C@@H]([C@H](N)C(=O)N[C@H](C(=O)O)[C@H]1O[C@@H](n2ccc(=O)[nH]c2=O)[C@H](O)[C@@H]1O)[C@H](O)c1ccc(O)cn1 [Nikkomycin] |  | inhibits, 38 mm radius cleared |  |
| NC(=O)OC[C@H](O)[C@@H](O)[C@H](N)C(=O)N[C@H](C(=O)O)[C@H]1O[C@@H](n2cc(C(=O)O)c(=O)[nH]c2=O)[C@H](O)[C@@H]1O [Polyoxin D] |  | inhibits, 7 mm radius cleared |  |
| Aureofungin | no effect on growth or pigmentation |  |  |
| CC[C@H]1OC(=O)C[C@@H](O)[C@H](C)[C@@H](O[C@@H]2O[C@H](C)[C@@H](O[C@H]3C[C@@](C)(O)[C@@H](O)[C@H](C)O3)[C@H](N(C)C)[C@H]2O)[C@@H](CC=O)C[C@@H](C)C(=O)/C=C/C(C)=C/[C@@H]1CO[C@@H]1O[C@H](C)[C@@H](O)[C@@H](OC)[C@H]1OC [Tylosin Tartrate] | no effect on growth or pigmentation |  |  |
| Cc1cc(O)c2c(c1)C(=O)[C@]13C(=C2O)C(=O)[C@@H]2[C@H](O)[C@H]1[C@@H]1[C@@H](O)[C@H]3C(=O)C3=C(O)c4c(O)cc(C)cc4C(=O)[C@]312 [Rugulosin] |  |  | Observation: inhibits, radius cleared [3]: inhibits, 9 mm radius cleared |
| CCCCNC(=O)n1c(NC(=O)OC)nc2ccccc21 [Benomyl] |  | inhibits, 31 mm radius cleared |  |
| Cc1cc(=O)n2c3c(c4c(cc13)c(CO)cc(=O)n4C)OC2 [Nybomycin] | no effect on growth or pigmentation |  |  |
| COC(=O)c1ccccc1S(=O)(=O)NC(=O)Nc1nc(C)cc(C)n1 [Sulfometuron methyl] |  | inhibits, 6 mm radius cleared |  |
| CC(C)(C)C(O)/C(=C\c1ccc(Cl)cc1Cl)n1cncn1 (centres unmarked) [Diniconazole] |  | inhibits, 27 mm radius cleared |  |
| Monicamycin | no effect on growth or pigmentation |  |  |
| Noconazole |  | inhibits, 8 mm radius cleared |  |
| CN[C@H](CC(C)C)C(=O)N[C@H]1C(=O)N[C@@H](CC(N)=O)C(=O)N[C@H]2C(=O)N[C@H]3C(=O)N[C@H](C(=O)N[C@H](C(=O)O)c4cc(O)cc(O)c4-c4cc3ccc4O)[C@H](O)c3ccc(c(Cl)c3)Oc3cc2cc(c3O[C@@H]2O[C@H](CO)[C@@H](O)[C@H](O)[C@H]2O[C@H]2C[C@](C)(N)[C@H](O)[C@H](C)O2)Oc2ccc(cc2Cl)[C@H]1O [Vancomycin HCl] |  |  | Observation: no effect on growth or pigmentation |
| CCCCCCCCCCCCCN1CC(C)OC(C)C1 (centres unmarked) [Tridemorph] |  | inhibits, 6 mm radius cleared |  |
| Nc1ncnc2c1ccn2[C@@H]1O[C@H](CO)[C@@H](O)[C@H]1O [Tubercidin] |  |  | Observation: fungal thinning, radius: fungal thinning, 10 mm radius |
| C[C@@H]1C[C@@H]([C@H](O)CC2CC(=O)NC(=O)C2)C(=O)[C@@H](C)C1 [Cycloheximide] |  |  | Observation: inhibits, radius cleared: inhibits, 22 mm radius cleared |
| Nc1ccn([C@@H]2O[C@H]([C@H](O[C@@H]3O[C@H](CO)[C@@H](O)[C@H](N)[C@H]3O)[C@@H](O)[C@@H](O)[C@H](O)[C@H](O)CO)[C@@H](N)[C@H](O)[C@H]2O)c(=O)n1 [Anthelmycin] |  |  | Observation: inhibits, radius cleared [3]: inhibits, 14 mm radius cleared |
| Nc1nc[nH]n1 [Amino-triazole] |  | inhibits, 13 mm radius cleared |  |
| C[C@@H]1C[C@@H]2CCCC(O)=C2C(=O)O1 [Ramulosin] | no effect on growth or pigmentation |  |  |
| Flavofungin | no effect on growth or pigmentation |  |  |
| CC(=O)Nc1c2sscc-2n(C)c1=O [Thiolutin] |  |  | Observation: inhibits, radius cleared [3]: inhibits, 23 mm radius cleared |
| Clc1ccc(COC(Cn2ccnc2)c2ccc(Cl)cc2Cl)c(Cl)c1 (centres unmarked) [Miconazole] |  | inhibits, 31 mm radius cleared |  |
| C[C@@H]1C/C=C/C=C/C=C/C=C/[C@H](O[C@@H]2O[C@H](C)[C@@H](O)[C@H](N)[C@@H]2O)C[C@@H]2O[C@](O)(C[C@@H](O)C[C@H]3O[C@@H]3/C=C/C(=O)O1)C[C@H](O)[C@H]2C(=O)O [Tennecetin] | no effect on growth or pigmentation |  |  |
| OC(c1ccc(Cl)cc1)(c1cncnc1)c1ccccc1Cl (centres unmarked) [Fenarimole] |  | inhibits, 22 mm radius cleared |  |
| Sulfocidin |  |  | Observation: fungal thinning, radius [4]: fungal thinning, 5 mm radius |
| Antimycin |  | inhibits, 13 mm radius cleared |  |

| Compound | Observation [1] | Observation: inhibits, radius cleared [2] | further results |
| --- | --- | --- | --- |
| Protomycin/Streptimidone | no effect on growth or pigmentation |  |  |
| CN1C(=O)[C@]23CC4=CC=C[C@H](O)[C@H]4N2C(=O)[C@@]1(CO)SS3 [Gliotoxin] |  |  | Observation: inhibits, radius cleared: inhibits, 17 mm radius cleared |
| Hamycin | no effect on growth or pigmentation |  |  |
| C/C=C/[C@H]1O[C@@](O)([C@@H](C)[C@H](O)[C@H](C)[C@H]2OC(=O)/C(OC)=C/C(C)=C/[C@@H](C)[C@@H](O)[C@@H](CC)[C@@H](O)[C@H](C)C/C(C)=C/C=C/[C@@H]2OC)C[C@@H](O[C@H]2C[C@@H](O)[C@H](OC(N)=O)[C@@H](C)O2)[C@@H]1C [Folimycin] |  |  | Observation: inhibits, radius cleared [3]: inhibits, 4 mm radius cleared |
| Thioaurin |  |  | Observation: inhibits, radius cleared [3]: inhibits, 16 mm radius cleared |
| [H]/N=C(/N)N[C@H]1[C@H](O)[C@@H](O)[C@H](O[C@@H]2O[C@@H](C)[C@](O)(C=O)[C@H]2O[C@@H]2O[C@@H](CO)[C@H](O)[C@@H](O)[C@@H]2NC)[C@@H](N/C(N)=N\[H])[C@@H]1O [Streptomycin Sulfate] | no effect on growth or pigmentation |  |  |
| Clc1cc(Cl)c(OCC#CI)cc1Cl [Haloprofin] |  | inhibits, 13 mm radius cleared |  |
| Cc1cccc(N(C)C(=S)Oc2ccc3ccccc3c2)c1 [Tolnaftate] |  | inhibits, 13 mm radius cleared |  |
| CP(=O)(O)CC[C@H](N)C(=O)O [Phosphenothricin] |  | inhibits, 20 mm radius cleared |  |
| Trichomycin | no effect on growth or pigmentation |  |  |
| CN[C@@H]1C[C@H](N)[C@@H](O)[C@H](O[C@@H]2O[C@H](CO)[C@H](O)[C@@H]3OC4(O[C@H]23)O[C@H]([C@@H](N)CO)[C@H](O)[C@H](O)[C@H]4O)[C@H]1O (some centres unmarked) [Destomycin A] |  |  | Observation: inhibits, radius cleared [3]: inhibits, 18 mm radius cleared |
| Neohumidin | no effect on growth or pigmentation |  |  |
| Tetrahydro Spiramycin Base | no effect on growth or pigmentation |  |  |
| COc1oc([C@H]2C/C(=C/C(C)=C/c3ccc([N+](=O)[O-])cc3)CO2)c(C)c(=O)c1C [Mycolutein] |  |  | Observation: fungal thinning, radius [4]: fungal thinning, 16 mm radius |
| Azalomycin |  |  | Observation: inhibits, radius cleared [3]: inhibits, 14 mm radius cleared |
| CC1CCC(=O)C=CC(=O)OC(C)CCC(=O)C=CC(=O)O1 (centres unmarked) [Pyrenophorin] |  |  | Observation: inhibits, radius cleared [3]: inhibits, 12 mm radius cleared |
| Neomycin Sulfate | no effect on growth or pigmentation |  |  |
| Nc1nc(=O)[nH]cc1F [5-Fluoro-Cytosine] |  | inhibits, 35 mm radius cleared |  |
| Maneb |  |  | Observation [5]: no effect on pigmentation, growth thin |
| CCCCC[C@@H](O)[C@H]1C(=O)O[C@H](C)[C@@H](O)/C=C/C=C/C=C/C=C/C=C(\C)[C@@H](O)[C@H](O)[C@H](O)C[C@H](O)C[C@H](O)C[C@H](O)C[C@H](O)C[C@@H]1O [Pentamycin] | no effect on growth or pigmentation |  |  |
| COCC(=O)N(c1c(C)cccc1C)C(C)C(=O)OC (centres unmarked) [Metalaxyl] |  |  | Observation [5]: no effect on growth or pigmentation |
| CC1=C(C(=O)Nc2ccccc2)SCCO1 [Carboxin] |  | inhibits, 21 mm radius cleared |  |
| C=CC1(C)OC(=O)N(c2cc(Cl)cc(Cl)c2)C1=O (centres unmarked) [Ronilon] |  |  | Observation [5]: very slight effect on growth |
| Clc1ccc(COC(Cn2ccnc2)c2ccc(Cl)cc2Cl)cc1 (centres unmarked) [Econazole] |  | inhibits, 32 mm radius cleared |  |
| C[C@@H]1[C@H](O)[C@@H](C)/C=C/C=C/C=C/C=C/C=C/C=C/C=C/[C@H](O[C@@H]2O[C@H](C)[C@@H](O)[C@H](N)[C@@H]2O)C[C@@H]2O[C@](O)(C[C@@H](O)C[C@@H](O)[C@H](O)CC[C@@H](O)C[C@@H](O)CC(=O)O[C@H]1C)C[C@H](O)[C@H]2C(=O)O [Amphotericin B] |  |  | Observation [5]: no effect on growth or pigmentation |
| Tunicamycin |  | inhibits, 22 mm radius cleared |  |
